# Literature values, collected in patent publication US20240156991A1, “STABLE FORMULATIONS OF INDOCYANINE GREEN” (PROVEPHARM LIFE SOLUTIONS, priority 2021, published 2024).
structure (smiles),measurement,setting,value
"CC1(C)C(/C=C/C=C/C=C/C=C2\N(CCCCS(=O)(=O)O)c3ccc4ccccc4c3C2(C)C)=[N+](CCCCS(=O)(=O)O)c2ccc3ccccc3c21 [ICG, Indocyanine green]",reduction of absorbance at spectral peak,after 10 hours of storage in water and direct light,10%
same,fluorescence intensity lost,"stored at 4° C. in the dark, three days",20%
